Source: patent US9546144B2, “Bifunctional compounds” (University of Pittsburgh—of the Commonwealth System of …, priority 2011, dated 2017)

Columns and labels:
[1] = test system: C57BL/6NTac mice; test: total body irradiation survival (hematopoietic syndrome); assay type: in vivo, mouse; settings: 9.5 Gy
Method: FIG. 11. MMS350 was dissolved in PBS and injected IP at 20 mg/kg. The mice were irradiated to 9.5 Gy total body irradiation and then injected at 4 or 24 hr after irradiation.
FIG. 13. In vivo mitigation of total body irradiation by MMS350. MMS350 was dissolved in water at a concentration of 2 mg/ml. C57BL/6NTac mice (n=15/group) were irradiated to 9.5 Gy total body irradiation and injected intraperitoneally with 10 mg/kg of MMS350 at 4 or 24 hr. after irradiation. The mice were followed for the development of the hematopoietic syndrome at which time the mice were sacrificed.
MMS350 was delivered by intraperitoneal injection to C57BL/6 mice (n=15/group) before or after the 9.5 Gy of total body irradiation (a dose which kills at least 50% of mice at 30 days) and indicative of death from the hematopoietic syndrome (bone marrow failure).
Mice were irradiated using JL Shepherd Mark 1 Model 68 irradiator to 9.25 total body irradiation dose or a Varian Linear Accelerator (Varian Medical Systems, Inc, Palo Alto, Calif.) to 20 Gy for pulmonary irradiation according to published methods (2, 10, 13).
Mice were injected intra-peritoneally with MMS350 or JP4-039 (GS-nitroxide) in 50% cremphor/50% ethanol according to published methods. For long-term administration of MMS350, the drug was administered in water bottles with bottles changed every 7 days. The dose of drug per bottle was 100 μM MMS350 starting on day 88. The estimated total amount consumed by each animal daily was 10.9 μg based on a mouse drinking 5 ml of water per day. Chimeric mice irradiated to the thoracic cavity were placed 30 days later on MMS350 in water containing 100 mM MMS350. On day 88 after thoracic irradiation of non-chimeric mice, mice were placed on […] MMS350 in drinking water.

[2] = test system: 32D cl 3 cells; test: irradiated 32D cl 3 cells, cell number and viability; assay type: cell-based; settings: 10 μM, 0-7 Gy, Day 3 or 5 after irradiation
Method: FIG. 10. The data are from a screening experiment where 32D cl 3 cells were irradiated to doses of 0, 1, 3, 5, or 7 Gy and placed in T25 flasks. Either JP4-039 or MM350 were added at 10 μM and incubated in a CO2 incubator at 37° C. At Day 3 or 5 after irradiation, the cells were counted and the viability determined.

[3] = test system: bone marrow stromal cell line derived from C57BL/6NTac mice; test: in vitro clonogenic radiation survival curves; assay type: cell-based, mouse; settings: 100 μM added 10 min after irradiation; control 1.9±0.1, p=0.0444
Method: FIG. 12. In vitro radioprotection and mitigation of bone marrow stromal cells. In vitro survival curves were performed using a bone marrow stromal cell line derived from C57BL/6NTac mice. Cells were incubated in 100 μM MMS350 for one hour before irradiation or was added to the cells 10 min after irradiation. Cells were irradiated to doses ranging from 0 to 8 Gy, plated in 4 well tissue culture plates, incubated for 7 days at 37° C. in a humidified CO2 incubator, and stained with crystal violet. Colonies of greater than 50 cells were counted and analyzed using a linear quadratic model or single-hit, multi-target model.
The murine C57BL/6 bone marrow stromal cell line (Epperly M W, Sikora C A, Defilippi S, Gretton J E, Greenberger J S. Bone marrow origin of myofibroblasts in irradiation pulmonary fibrosis. Am J Resp Molecular Cell Biology 2003; 29:213-224) and its use in clonogenic radiation survival curves has been described (Epperly M W, Gretton J E, Bernarding M, Nie S, Rasul B, Greenberger J S. Mitochondrial localization of copper/zinc superoxide dismutase (Cu/ZnSOD) confers radioprotective functions in vitro and in vivo. Radiation Research 2003; 160:568-578).
Cell lines were irradiated at dose rate of 70 cGy per minute using a Cesium Gamma Cell Irradiator according to published methods. […]

[4] = test system: C57BL/6NTac mice; test: radiation pulmonary fibrosis and survival after 20 Gy thoracic irradiation; assay type: in vivo, mouse; settings: in drinking water
Description: FIG. 23. MMS350 in drinking water decreases fibrosis in the lungs of thoracic irradiated (20 Gy) mice.
For lung irradiation, mice were irradiated to the thoracic cavity with shielding of the head and neck region and abdomen and lower body according to published methods. Animals received 20 Gy single fraction thoracic irradiation and were then maintained according to IACUC directed laboratory conditions. Mice were sacrificed at serial time points after thoracic irradiation including pre-irradiation, days 2, 7, 14, 28, 50, 75, 100, 110, 150 and 200 post-irradiation. Lungs were removed and sagittal sections assayed for percent of lung replaced by fibroblasts and organizing alveolitis according to published methods.
Lungs from irradiated and luc+ cell line injected mice were removed and serial sectioned. Sections were stained for luc+, GFP+ cells, BrdU incorporation, and for quantitation of percent lung replaced by fibrosis (organizing alveolitis) according to published methods.
Mice were injected intra-peritoneally with MMS350 or JP4-039 (GS-nitroxide) in 50% cremphor/50% ethanol according to published methods. For long-term administration of MMS350, the drug was administered in water bottles with bottles changed every 7 days. The dose of drug per bottle was 100 μM MMS350 starting on day 88. […]

## CC1(C[S+]([O-])CC2(C)COC2)COC1 [compound 3, 3,3′-Sulfinylbis(methylene)bis(3-methyloxetane)]
[1]; 10 mg/kg intraperitoneally 4 hr after irradiation, p=0.0092
  survival after total body irradiation: significantly increased survival
[1]; 10 mg/kg intraperitoneally 24 hr after irradiation, p=0.0097
  survival after total body irradiation: significantly increased survival
[1]; intraperitoneal injection before irradiation
  protection against total body irradiation: protector when delivered prior to irradiation
[2]
  number of cells and viability after irradiation: comparable to JP4-039
[3]
  D0 of the survival curve: 2.4±0.3
[4]
  survival of thoracic irradiated mice: significantly increased survival
